Measurements taken from ChEMBL document CHEMBL1201861, “Genomics of Drug Sensitity in Cancer screening data, Wellcome Trust Sanger Institute”.

How the values were obtained:
[1] = test system: SK-N-AS; experiment: cells; assay type: functional, cell-based; conditions: Homo sapiens;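 also: growth inhibition of human SK-N-AS cells, measured with a cell viability assay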
Description: SANGER: Inhibition of human SK-N-AS cell growth in a cell viability assay.

[2] = test system: NCI-H2347; experiment: cells; assay type: functional, cell-based; conditions: Homo sapiens;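 also: growth inhibition of the cell line, read out with a cell viability assay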
Description: SANGER: Inhibition of human NCI-H2347 cell growth in a cell viability assay.

[3] = test system: PA-1; experiment: cells; assay type: functional, cell-based; conditions: Homo sapiens;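 also: IC50 for suppression of PA-1 cell proliferation, determined with a cell viability read-out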
Description: SANGER: Inhibition of human PA-1 cell growth in a cell viability assay.

[4] = test system: EB-3; experiment: cells; assay type: functional, cell-based; conditions: Homo sapiens;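 also: human EB-3 cells, growth inhibition read out via a cell viability assay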
Description: SANGER: Inhibition of human EB-3 cell growth in a cell viability assay.

[5] = test system: J82; experiment: cells; assay type: functional, cell-based; conditions: Homo sapiens;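 also: growth inhibition of J82 cells, read out with a cell viability assay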
Description: SANGER: Inhibition of human J82 cell growth in a cell viability assay.

[6] = test system: NCI-H64; experiment: cells; assay type: functional, cell-based; conditions: Homo sapiens;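 also: growth inhibition of NCI-H64 cells, read out with a cell viability assay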
Description: SANGER: Inhibition of human NCI-H64 cell growth in a cell viability assay.

[7] = test system: CAL-39; experiment: cells; assay type: functional, cell-based; conditions: Homo sapiens;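 also: cell viability assay measuring growth inhibition of CAL-39 cells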
Description: SANGER: Inhibition of human CAL-39 cell growth in a cell viability assay.

[8] = test system: NCI-H1651; experiment: cells; assay type: functional, cell-based; conditions: Homo sapiens;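 also: Read-out is a cell viability assay, with IC50 expressing inhibition of NCI-H1651 cell growth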
Description: SANGER: Inhibition of human NCI-H1651 cell growth in a cell viability assay.

[9] = test system: U2OS; experiment: cells; assay type: functional, cell-based, U-2-OS; conditions: Homo sapiens;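 also: growth inhibition of human U-2-OS cells, determined with a cell viability assay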
Description: SANGER: Inhibition of human U-2-OS cell growth in a cell viability assay.

[10] = test system: SCLC-21H; experiment: cells; assay type: functional, cell-based; conditions: Homo sapiens;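 also: growth inhibition of cultured human SCLC-21H cells, read out with a cell viability assay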
Description: SANGER: Inhibition of human SCLC-21H cell growth in a cell viability assay.

[11] = test system: NCI-H460; experiment: cells; assay type: functional, cell-based; conditions: Homo sapiens;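 also: cell viability assay scoring growth inhibition of human NCI-H460 cells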
Description: SANGER: Inhibition of human NCI-H460 cell growth in a cell viability assay.

[12] = test system: ARH-77; experiment: cells; assay type: functional, cell-based; conditions: Homo sapiens;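 also: growth inhibition of ARH-77 cells, read out by a cell viability assay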
Description: SANGER: Inhibition of human ARH-77 cell growth in a cell viability assay.

[13] = test system: IGR-1; experiment: cells; assay type: functional, cell-based; conditions: Homo sapiens;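 also: growth inhibition of human IGR-1 cells, read out with a cell viability assay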
Description: SANGER: Inhibition of human IGR-1 cell growth in a cell viability assay.

[14] = test system: SK-MEL-28; experiment: cells; assay type: functional, cell-based; conditions: Homo sapiens;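 also: growth inhibition of human SK-MEL-28 cells, read out with a cell viability assay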
Description: SANGER: Inhibition of human SK-MEL-28 cell growth in a cell viability assay.

[15] = test system: KYSE-270; experiment: cells; assay type: functional, cell-based; conditions: Homo sapiens;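 also: cell growth inhibition measured with a viability assay in the human KYSE-270 line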
Description: SANGER: Inhibition of human KYSE-270 cell growth in a cell viability assay.

[16] = test system: NCI-H1437; experiment: cells; assay type: functional, cell-based; conditions: Homo sapiens;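 also: growth inhibition of human NCI-H1437 cells, read out by a cell viability assay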
Description: SANGER: Inhibition of human NCI-H1437 cell growth in a cell viability assay.

[17] = test system: SW1710; experiment: cells; assay type: functional, cell-based; conditions: Homo sapiens;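 also: growth inhibition of SW1710 cells, determined with a cell viability assay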
Description: SANGER: Inhibition of human SW1710 cell growth in a cell viability assay.

[18] = test system: NCI-H1693; experiment: cells; assay type: functional, cell-based; conditions: Homo sapiens;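 also: growth inhibition of the human cell line, read out with a cell viability assay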
Description: SANGER: Inhibition of human NCI-H1693 cell growth in a cell viability assay.

[19] = test system: LCLC-97TM1; experiment: cells; assay type: functional, cell-based; conditions: Homo sapiens;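 also: cell viability assay measuring growth inhibition of human LCLC-97TM1 cells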
Description: SANGER: Inhibition of human LCLC-97TM1 cell growth in a cell viability assay.

[20] = test system: COLO-741; experiment: cells; assay type: functional, cell-based; conditions: Homo sapiens
Description: SANGER: Inhibition of human COLO-741 cell growth in a cell viability assay.

[21] = test system: DMS-273; experiment: cells; assay type: functional, cell-based; conditions: Homo sapiens
Description: SANGER: Inhibition of human DMS-273 cell growth in a cell viability assay.

[22] = test system: BOKU; experiment: cells; assay type: functional, cell-based; conditions: Homo sapiens;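 also: growth inhibition of the human BOKU cell line, read out by a cell viability assay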
Description: SANGER: Inhibition of human BOKU cell growth in a cell viability assay.

[23] = test system: NCI-H719; experiment: cells; assay type: functional, cell-based; conditions: Homo sapiens;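 also: growth inhibition of the cultured cell line, read out with a viability assay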
Description: SANGER: Inhibition of human NCI-H719 cell growth in a cell viability assay.

[24] = test system: HLE; experiment: cells; assay type: functional, cell-based; conditions: Homo sapiens;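 also: growth inhibition of human HLE cells, read out by a cell viability assay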
Description: SANGER: Inhibition of human HLE cell growth in a cell viability assay.

[25] = test system: KYSE-70 cell line; experiment: cells; assay type: functional, cell-based; conditions: Homo sapiens;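 also: cell viability assay read-out, with IC50 expressing suppression of KYSE-70 cell growth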
Description: SANGER: Inhibition of human KYSE-70 cell growth in a cell viability assay.

[26] = test system: SW948; experiment: cells; assay type: functional, cell-based; conditions: Homo sapiens;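 also: growth inhibition of SW948 cells, read out with a cell viability assay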
Description: SANGER: Inhibition of human SW948 cell growth in a cell viability assay.

[27] = test system: COR-L23; experiment: cells; assay type: functional, cell-based; conditions: Homo sapiens;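 also: cell viability assay measuring how strongly compounds suppress growth of COR-L23 cells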
Description: SANGER: Inhibition of human COR-L23 cell growth in a cell viability assay.

[28] = test system: NCI-H716; experiment: cells; assay type: functional, cell-based; conditions: Homo sapiens;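 also: growth inhibition of human NCI-H716 cells, measured by a cell viability assay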
Description: SANGER: Inhibition of human NCI-H716 cell growth in a cell viability assay.

[29] = test system: UMUC3; experiment: cells; assay type: functional, cell-based; conditions: Homo sapiens;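 also: growth inhibition of human UM-UC-3 cells, read out with a cell viability assay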
Description: SANGER: Inhibition of human UM-UC-3 cell growth in a cell viability assay.

[30] = test system: HuO-3N1; experiment: cells; assay type: functional, cell-based; conditions: Homo sapiens;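 also: cell viability readout used to measure how strongly compounds suppress proliferation of human HuO-3N1 cells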
Description: SANGER: Inhibition of human HuO-3N1 cell growth in a cell viability assay.

[31] = test system: Hs-578T; experiment: cells; assay type: functional, cell-based; conditions: Homo sapiens
Description: SANGER: Inhibition of human Hs-578-T cell growth in a cell viability assay.

[32] = test system: EGI-1; experiment: cells; assay type: functional, cell-based; conditions: Homo sapiens;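 also: cell viability readout used to gauge growth inhibition of EGI-1 cells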
Description: SANGER: Inhibition of human EGI-1 cell growth in a cell viability assay.

[33] = test system: DOK; experiment: cells; assay type: functional, cell-based; conditions: Homo sapiens;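 also: cell viability assay read-out, values reflect inhibition of cell growth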
Description: SANGER: Inhibition of human DOK cell growth in a cell viability assay.

[34] = test system: CAKI-1; experiment: cells; assay type: functional, cell-based; conditions: Homo sapiens;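 also: growth inhibition of CAKI-1 cells, measured by a cell viability assay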
Description: SANGER: Inhibition of human CAKI-1 cell growth in a cell viability assay.

[35] = test system: M059J; experiment: cells; assay type: functional, cell-based; conditions: Homo sapiens;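 also: growth inhibition of M059J cells, read out with a cell viability assay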
Description: SANGER: Inhibition of human M059J cell growth in a cell viability assay.

[36] = test system: NCI-H358; experiment: cells; assay type: functional, cell-based; conditions: Homo sapiens;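 also: growth inhibition of NCI-H358 human cells, read out with a cell viability assay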
Description: SANGER: Inhibition of human NCI-H358 cell growth in a cell viability assay.

[37] = test system: BEN; experiment: cells; assay type: functional, cell-based; conditions: Homo sapiens;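 also: growth inhibition of the BEN cell line, read out with a cell viability assay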
Description: SANGER: Inhibition of human BEN cell growth in a cell viability assay.

[38] = test system: PC-14; experiment: cells; assay type: functional, cell-based; conditions: Homo sapiens;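 also: cell viability assay measuring inhibition of PC-14 cell growth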
Description: SANGER: Inhibition of human PC-14 cell growth in a cell viability assay.

[39] = test system: RPMI-6666; experiment: cells; assay type: functional, cell-based; conditions: Homo sapiens
Description: SANGER: Inhibition of human RPMI-6666 cell growth in a cell viability assay.

[40] = test system: TCC-SUP; experiment: cells; assay type: functional, cell-based; conditions: Homo sapiens;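 also: growth inhibition of TCC-SUP cells, read out with a cell viability assay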
Description: SANGER: Inhibition of human TCCSUP cell growth in a cell viability assay.

[41] = test system: OE19; experiment: cells; assay type: functional, cell-based; conditions: Homo sapiens;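 also: growth inhibition of OE19 cells, measured through a cell viability read-out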
Description: SANGER: Inhibition of human OE19 cell growth in a cell viability assay.

[42] = test system: HCT-116; experiment: cells; assay type: functional, cell-based; conditions: Homo sapiens
Description: SANGER: Inhibition of human HCT-116 cell growth in a cell viability assay.

[43] = test system: MHH-ES-1; experiment: cells; assay type: functional, cell-based; conditions: Homo sapiens
Description: SANGER: Inhibition of human MHH-ES-1 cell growth in a cell viability assay.

[44] = test system: MeWo; experiment: cells; assay type: functional, cell-based; conditions: Homo sapiens;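 also: growth inhibition of MeWo cells, determined by a cell viability readout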
Description: SANGER: Inhibition of human Mewo cell growth in a cell viability assay.

[45] = test system: HuP-T4; experiment: cells; assay type: functional, cell-based; conditions: Homo sapiens;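 also: cell viability assay measuring how much HuP-T4 cell growth is inhibited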
Description: SANGER: Inhibition of human HuP-T4 cell growth in a cell viability assay.

[46] = test system: ABC-1; experiment: cells; assay type: functional, cell-based; conditions: Homo sapiens;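 also: growth inhibition of human ABC-1 cells, read out by a cell viability assay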
Description: SANGER: Inhibition of human ABC-1 cell growth in a cell viability assay.

[47] = test system: G-402; experiment: cells; assay type: functional, cell-based; conditions: Homo sapiens
Description: SANGER: Inhibition of human G-402 cell growth in a cell viability assay.

[48] = test system: NALM-6; experiment: cells; assay type: functional, cell-based; conditions: Homo sapiens;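 also: growth inhibition of NALM-6 cells, read out with a cell viability assay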
Description: SANGER: Inhibition of human NALM-6 cell growth in a cell viability assay.

[49] = test system: NCI-H1623; experiment: cells; assay type: functional, cell-based; conditions: Homo sapiens;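 also: cell viability assay used as the read-out for growth inhibition of NCI-H1623 cells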
Description: SANGER: Inhibition of human NCI-H1623 cell growth in a cell viability assay.

[50] = test system: T84; experiment: cells; assay type: functional, cell-based; conditions: Homo sapiens;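 also: growth inhibition measured with a cell viability readout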
Description: SANGER: Inhibition of human T84 cell growth in a cell viability assay.

[51] = test system: KYSE-140; experiment: cells; assay type: functional, cell-based; conditions: Homo sapiens;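 also: cell viability assay measuring growth inhibition in human KYSE-140 cells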
Description: SANGER: Inhibition of human KYSE-140 cell growth in a cell viability assay.

[52] = test system: UACC-812; experiment: cells; assay type: functional, cell-based; conditions: Homo sapiens
Description: SANGER: Inhibition of human UACC-812 cell growth in a cell viability assay.

[53] = test system: NCI-H2452; experiment: cells; assay type: functional, cell-based; conditions: Homo sapiens;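 also: growth inhibition of NCI-H2452 cells, read out with a cell viability assay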
Description: SANGER: Inhibition of human NCI-H2452 cell growth in a cell viability assay.

[54] = test system: RO82-W-1; experiment: cells; assay type: functional, cell-based; conditions: Homo sapiens;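 also: growth inhibition of human RO82-W-1 cells, measured with a cell viability assay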
Description: SANGER: Inhibition of human RO82-W-1 cell growth in a cell viability assay.

[55] = test system: CESS; experiment: SANGER: Inhibition of human CESS cell growth in a cell viability assay.; assay type: functional, cell-based
[56] = test system: SK-MEL-24; experiment: cells; assay type: functional, cell-based; conditions: Homo sapiens;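 also: growth inhibition read out by a cell viability assay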
Description: SANGER: Inhibition of human SK-MEL-24 cell growth in a cell viability assay.

[57] = test system: SW1463; experiment: cells; assay type: functional, cell-based; conditions: Homo sapiens;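 also: growth inhibition of SW1463 cells, determined with a cell viability assay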
Description: SANGER: Inhibition of human SW1463 cell growth in a cell viability assay.

[58] = test system: LN-405; experiment: cells; assay type: functional, cell-based; conditions: Homo sapiens
Description: SANGER: Inhibition of human LN-405 cell growth in a cell viability assay.

[59] = test system: SW1088; experiment: cells; assay type: functional, cell-based; conditions: Homo sapiens;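 also: growth inhibition of human SW1088 cells, read out by a cell viability assay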
Description: SANGER: Inhibition of human SW1088 cell growth in a cell viability assay.

[60] = test system: BXPC-3; experiment: cells; assay type: functional, cell-based; conditions: Homo sapiens
Description: SANGER: Inhibition of human BxPC-3 cell growth in a cell viability assay.

[61] = test system: CaR-1; experiment: cells; assay type: functional, cell-based; conditions: Homo sapiens
Description: SANGER: Inhibition of human CaR-1 cell growth in a cell viability assay.

[62] = test system: IM-9; experiment: SANGER: Inhibition of human IM-9 cell growth in a cell viability assay.; assay type: functional, cell-based

CO[C@@]12[C@H](COC(N)=O)C3=C(C(=O)C(C)=C(N)C3=O)N1C[C@@H]1N[C@@H]12 [MITOMYCIN]
IC50 [1]: 1.79 µM | IC50 [2]: 0.85 µM | IC50 [3]: 0.0235 µM | IC50 [4]: 3.2 µM | IC50 [5]: < 0.0625 µM | IC50 [6]: 1.53 µM | IC50 [7]: 0.0465 µM | IC50 [8]: < 0.0625 µM | IC50 [9]: > 16 µM | IC50 [10]: 0.963 µM | IC50 [11]: < 0.0625 µM | IC50 [12]: 0.243 µM | IC50 [13]: 0.322 µM | IC50 [14]: > 16 µM | IC50 [15]: 0.103 µM | IC50 [16]: 0.126 µM | IC50 [17]: 0.0726 µM | IC50 [18]: 0.9 µM | IC50 [19]: 0.139 µM | IC50 [20]: 2.2 µM | IC50 [21]: 0.161 µM | IC50 [22]: 0.104 µM | IC50 [23]: 0.0351 µM | IC50 [24]: 0.498 µM | IC50 [25]: 0.224 µM | IC50 [26]: 3.75 µM | IC50 [27]: 0.241 µM | IC50 [28]: 2.82 µM | IC50 [29]: 0.102 µM | IC50 [30]: 6.45 µM | IC50 [31]: 6.2 µM | IC50 [32]: 2.39 µM | IC50 [33]: 5.16 µM | IC50 [34]: 0.0233 µM | IC50 [35]: 0.101 µM | IC50 [36]: 0.276 µM | IC50 [37]: 0.935 µM | IC50 [38]: 0.491 µM | IC50 [39]: 0.22 µM | IC50 [40]: 0.482 µM | IC50 [41]: 0.365 µM | IC50 [42]: 1.02 µM | IC50 [43]: 0.0163 µM | IC50 [44]: 9.55 µM | IC50 [45]: 0.108 µM | IC50 [46]: 0.0612 µM | IC50 [47]: 0.0859 µM | IC50 [48]: < 0.0625 µM | IC50 [49]: 1.01 µM | IC50 [50]: 0.173 µM | IC50 [51]: 0.381 µM | IC50 [52]: > 16 µM | IC50 [53]: 8.94 µM | IC50 [54]: 13.3 µM | IC50 [55]: 0.225 µM | IC50 [56]: 1.37 µM | IC50 [57]: 2.08 µM | IC50 [58]: 2.15 µM | IC50 [59]: 4.67 µM | IC50 [60]: 0.775 µM | IC50 [61]: 0.469 µM | IC50 [62]: 0.0562 µM

N#C/C(=C1/Nc2ccccc2S1)c1ccnc(NCCc2cccnc2)n1
IC50 [1]: > 8 µM | IC50 [2]: > 8 µM | IC50 [3]: 1.53 µM | IC50 [4]: > 8 µM | IC50 [5]: 4.34 µM | IC50 [6]: > 8 µM | IC50 [7]: > 8 µM | IC50 [8]: > 8 µM | IC50 [9]: > 8 µM | IC50 [10]: > 8 µM | IC50 [11]: > 8 µM | IC50 [12]: > 8 µM | IC50 [13]: 4.68 µM | IC50 [14]: > 8 µM | IC50 [15]: 5.97 µM | IC50 [16]: 4.15 µM | IC50 [17]: 1.59 µM | IC50 [18]: > 8 µM | IC50 [19]: 2.12 µM | IC50 [20]: > 8 µM | IC50 [21]: 1.49 µM | IC50 [22]: > 8 µM | IC50 [23]: > 8 µM | IC50 [24]: 3.47 µM | IC50 [25]: 4.06 µM | IC50 [26]: > 8 µM | IC50 [27]: > 8 µM | IC50 [28]: > 8 µM | IC50 [29]: > 8 µM | IC50 [30]: 0.815 µM | IC50 [31]: > 8 µM | IC50 [32]: > 8 µM | IC50 [33]: > 8 µM | IC50 [34]: 6.48 µM | IC50 [35]: > 8 µM | IC50 [36]: 1.9 µM | IC50 [37]: > 8 µM | IC50 [38]: 3.62 µM | IC50 [39]: > 8 µM | IC50 [40]: > 8 µM | IC50 [41]: 2.92 µM | IC50 [42]: > 8 µM | IC50 [43]: > 8 µM | IC50 [44]: > 8 µM | IC50 [45]: 4.44 µM | IC50 [46]: > 8 µM | IC50 [47]: > 8 µM | IC50 [48]: 4.49 µM | IC50 [49]: > 8 µM | IC50 [50]: 3.86 µM | IC50 [51]: 1.41 µM | IC50 [52]: > 8 µM | IC50 [53]: > 8 µM | IC50 [54]: > 8 µM | IC50 [55]: > 8 µM | IC50 [56]: > 8 µM | IC50 [57]: > 8 µM | IC50 [58]: > 8 µM | IC50 [59]: > 8 µM | IC50 [60]: 1.86 µM | IC50 [61]: > 8 µM | IC50 [62]: > 8 µM
